Laboratory results: patent US8372847B2, “Pyrazinone modulator of corticotropin-releasing factor receptor activity” (Bristol-Myers Squibb Company, priority 2008, dated 2013)

Experiments:
human CRF1 receptors = molecular target: T1, human CRF1 receptors (Homo sapiens, UniProt P34998); test: hCRF1 binding assay, 125I-o-CRF competition, Y79 cell membranes; conditions: native human CRF1 receptors, Y79 retinoblastoma cells; n=3; read-out: IC50, inhibition of 125I-o-CRF binding to Y79 membrane
T1 construct: the native CRF1 receptors present on the human retinoblastoma cell line Y79; endogenous in cells; host or cells: Y79 human retinoblastoma cells
T1 sequence (P34998 24-415): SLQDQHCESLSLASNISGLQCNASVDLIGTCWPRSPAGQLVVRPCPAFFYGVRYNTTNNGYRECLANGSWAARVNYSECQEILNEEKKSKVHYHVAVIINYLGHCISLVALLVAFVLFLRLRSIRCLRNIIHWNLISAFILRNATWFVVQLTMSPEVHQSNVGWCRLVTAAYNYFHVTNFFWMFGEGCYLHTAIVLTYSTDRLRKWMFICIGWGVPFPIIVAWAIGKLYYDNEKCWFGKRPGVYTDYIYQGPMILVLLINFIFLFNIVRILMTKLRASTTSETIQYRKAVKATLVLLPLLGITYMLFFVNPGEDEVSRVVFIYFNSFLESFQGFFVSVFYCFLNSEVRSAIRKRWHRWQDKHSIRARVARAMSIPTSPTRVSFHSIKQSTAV
Description: hCRF1 Binding Assay. Membranes were prepared for binding using Y79 cells, a human retinoblastoma line that natively expresses human CRF1 receptors [Hauger, R., et al., Journal of Neurochemistry 68: 2308-2316, (1997)]. Briefly, cells were grown and collected then the pellet homogenized in assay buffer containing 50 mM Hepes (pH 7.0 at 23° C.), 10 mM MgCl2, 2 mM EGTA, 1 μg/ml aprotinin, 1 μg/ml leupeptin, 1 μg/ml pepstatin A, 0.005% Triton X-100, 10 U/ml bacitracin and 0.1% ovalbumin. The suspension was centrifuged at 32000×g for 30 minutes. The resulting supernatant was discarded and the pellet resuspended by homogenization in assay buffer and centrifuged again. The supernatant was discarded and the pellet resuspended by homogenization in assay buffer and aliquots frozen at −70° C. On the day of the experiment aliquots were thawed quickly and 25 μg/well added to 150 pM ^125I-ovine-CRF and drugs in a total volume of 100 μl assay buffer. The assay mixture was incubated for 2 hr at 21° C. Bound and free radioligand were then separated by rapid filtration using glass fiber filters (Whatman GF/B, pretreated with 0.3% PEI) on a Brandel Cell Harvester. […] Filters were then counted in a Wallac Wizard gamma counter. IC50 values were determined in a five point (five drug concentrations) competition assay using non-linear regression by Microsoft Excel-fit. […]

Male Sprague-Dawley rats = conditions: previous CRF1 antagonists, literature (McElroy 2002; Lelas 2004); cited from earlier work
CRF2 receptor = molecular target: T2, CRF2 receptor (Sus scrofa, UniProt B8Q4Z9); test: CRF2 binding assay, 125I-sauvagine competition, porcine choroid plexus membrane; conditions: n=3; read-out: IC50 at CRF2 receptors of porcine choroid plexus membrane
T2 construct: the CRF2 receptors endogenously expressed on the porcine choroid plexus membrane; from tissue; host or cells: porcine choroid plexus
T2 sequence (B8Q4Z9 1-411): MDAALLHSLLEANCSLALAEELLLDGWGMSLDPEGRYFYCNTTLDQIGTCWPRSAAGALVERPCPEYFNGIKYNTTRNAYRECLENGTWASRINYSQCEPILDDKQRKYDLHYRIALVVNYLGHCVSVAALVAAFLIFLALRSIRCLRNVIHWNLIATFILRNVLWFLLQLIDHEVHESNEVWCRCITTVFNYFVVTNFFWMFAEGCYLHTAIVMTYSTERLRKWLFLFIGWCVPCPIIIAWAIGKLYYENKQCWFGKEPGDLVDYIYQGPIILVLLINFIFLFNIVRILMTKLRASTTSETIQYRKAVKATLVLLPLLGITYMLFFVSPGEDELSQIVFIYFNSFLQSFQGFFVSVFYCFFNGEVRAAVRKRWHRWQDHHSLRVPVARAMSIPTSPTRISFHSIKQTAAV
Description: CRF2 Binding Assay. Frozen porcine choroid plexus was thawed rapidly in assay buffer containing 50 mM Hopes (pH 7.0 at 23° C.), 10 mM MgCl2, 2 mM EGTA, 1 μg/ml aprotinin, 1 μg/ml leupeptin, 1 μg/ml pepstatin A, 0.005% Triton X-100, 10 U/ml bacitracin and 0.1% ovalbumin and homogenized. The suspension was centrifuged at 32000×g for 30 minutes. The resulting supernatant was discarded and the pellet resuspended by homogenization in assay buffer and centrifuged again. The supernatant was discarded and the pellet resuspended by homogenization in assay buffer and frozen at −70° C. On the day of the experiment aliquots of the homogenate were thawed quickly and 10 μg/well added to 100 pM ^125I-sauvagine and drugs in a total volume of 100 μl assay buffer. The assay mixture was incubated for 2 hr at 21° C. Bound and free radioligand were then separated by rapid filtration using glass fiber filters (Whatman GF/B, pretreated with 0.3% PEI) on a Brandel Cell Harvester. Filters were then washed multiple times with ice cold wash buffer (PBS w/o Ca^2+ and Mg^2+, 0.01% Triton X-100 (pH 7.0 at 23° C.)). Non-specific binding was defined using 1 μM α-helical CRF (9-41). Filters were then counted in a Wallac Wizard gamma counter. IC50 values were determined in a five point (five drug concentrations) competition assay using non-linear regression by Microsoft Excel-fit.
Binding Results. […]

Row | IC50 (human CRF1 receptors) | IC50 (CRF2 receptor) | SMILES | effectiveness in the situational anxiety model (Male Sprague-Dawley rats)
1 | 1.71 ± 0.53 nM | – | COCC(COC)Nc1nc(C)nc2c(-c3ccc(Cl)cc3Cl)c(C)nn12 [DMP696] | effective
2 | 1.81 ± 0.46 nM | > 10000 nM | COC[C@H](C1CC1)n1cc(C#N)nc(Nc2cc(C)c(OC(F)F)nc2C)c1=O [(S)-4-(1-cyclopropyl-2-methoxyethyl)-6-(6-(difluoromethoxy)-2,5-dimethylpyridin-3-ylamino)-5-oxo-4,5-dihydropyrazine-2-carbonitrile] | –
